Laboratory results: US10201523B2, “Use of wilforlide A for overcoming chemotherapy resistance” (WESTERN UNIVERSITY OF HEALTH SCIENCES, priority 2013, dated 2019)
“And” between values parts separate entries of the source, which are not always exact repeats. Equal values may be shown once.

System: PC3
Assay: SRB cell viability assay, docetaxel with/without wilforlide A pretreatment
Conditions: PC3
[1] = no wilforlide A pre-Tx (control of Table 8), docetaxel 100 nM 72 h
[2] = wilforlide A 0.6 μg/ml pre-Tx, docetaxel 0.1 nM 72 h
[3] = wilforlide A 0.6 μg/ml pre-Tx, docetaxel 0.333 nM 72 h
[4] = wilforlide A 0.6 μg/ml pre-Tx, docetaxel 1 nM 72 h
[5] = wilforlide A 0.6 μg/ml pre-Tx, docetaxel 3.33 nM 72 h
[6] = wilforlide A 0.6 μg/ml pre-Tx, docetaxel 10 nM 72 h
[7] = wilforlide A 0.6 μg/ml pre-Tx, docetaxel 33.3 nM 72 h
[8] = wilforlide A 0.6 μg/ml pre-Tx, docetaxel 100 nM 72 h
[9] = wilforlide A 2.5 μg/ml pre-Tx, docetaxel 0.001 nM 72 h
[10] = wilforlide A 2.5 μg/ml pre-Tx, docetaxel 0.1 nM 72 h
[11] = wilforlide A 2.5 μg/ml pre-Tx, docetaxel 0.333 nM 72 h
[12] = wilforlide A 2.5 μg/ml pre-Tx, docetaxel 1 nM 72 h
[13] = wilforlide A 2.5 μg/ml pre-Tx, docetaxel 3.33 nM 72 h
[14] = wilforlide A 2.5 μg/ml pre-Tx, docetaxel 10 nM 72 h
[15] = wilforlide A 2.5 μg/ml pre-Tx, docetaxel 33.3 nM 72 h
[16] = wilforlide A 2.5 μg/ml pre-Tx, docetaxel 100 nM 72 h
[17] = wilforlide A […] pre-Tx, docetaxel 0.001 nM 72 h
[18] = wilforlide A […] pre-Tx, docetaxel 0.1 nM 72 h
[19] = wilforlide A […] pre-Tx, docetaxel 0.333 nM 72 h
[20] = wilforlide A […] pre-Tx, docetaxel 1 nM 72 h
[21] = wilforlide A […] pre-Tx, docetaxel 3.33 nM 72 h
[22] = wilforlide A […] pre-Tx, docetaxel 10 nM 72 h
[23] = wilforlide A […] pre-Tx, docetaxel 33.3 nM 72 h
[24] = wilforlide A […] pre-Tx, docetaxel 100 nM 72 h

Experimental: Following the 72 hour wilforlide A treatment, a sulforhodamine B (SRB) assay was used to quantitate living cells. To perform the assay, the wilforlide A media was aspirated from each well, and replaced with a 10% solution of cold trichloroacetic acid (TCA) (Cat #: T6399, purchased from Sigma-Aldrich), and incubated for one hour at 4° C. After the TCA incubation, the TCA solution was aspirated, and the cells were washed five times with tap water. After removing the last wash, the plates were left with lids off at room temperature until the surfaces were dry, which took one to two hours. Then 50 μl of a 0.4% solution of sul-forhodamine B (SRB) sodium salt (Cat #: S9012, purchased from Sigma-Aldrich) was added to each well and the plates were incubated at room temperature for 20 to 30 minutes. Afterwards, the wells were washed five times with a 1% acetic acid solution in 10 mM TRIS base (Cat #: 161-0719, purchased from Bio-Rad Laboratories, Hercules, Calif.). The plates were subsequently left to dry for several hours or overnight. SRB that remained in the dried wells was solubilized by adding 100 μl of SRB solubilization solution (10 mM TRIS base) to each well, and placing the plates either on a gently-moving shaker or letting the plates remain stationary at room temperature until the SRB dissolves, which takes about five to ten minutes. The amount of SRB in each well, which correlated directly to the number of living cells at fixation, was determined spectrophotometrically at an absorbance of 565 nm by a microplate reader.
In these comparisons, the in vitro IC50 of a tested chemotherapeutic drug (D) in cell culture was compared to the drug's IC50 when drug treatment followed pretreatment of the cells with wilforlide A (Purchased from PI & PI Technology Inc. of Guangzhou, China or the National Institutes for Food and Drug Control in Beijing, China).
Triplicate wells were assigned to each experimental condition tested, and a 24 hour recovery period for the cells following the seeding of the wells was allowed. During the recovery period, the cells were incubated at 37° C. and 5% CO2.
At the end of the two hour pre-treatment period, 50 μl aliquots of the desired chemotherapeutic drug RPMI medium were added according to the amounts provided in Table 2.
After adding the various doses of chemotherapeutic drugs, as described above, the cells were incubated for an additional 72 hours under the same temperature and atmospheric conditions used for the pre-treatment step.
The cells were then incubated for 72 hours at 37° C. and 5% CO2. After the 72 hour incubation, sulforhodamine B (SRB) assays were performed as described in Example 1 to quantitate living cells.

CC(=O)O[C@@]12CO[C@@H]1C[C@H](O)[C@@]1(C)C(=O)[C@H](O)C3=C(C)[C@@H](OC(=O)[C@H](O)[C@@H](NC(=O)OC(C)(C)C)c4ccccc4)C[C@@](O)([C@@H](OC(=O)c4ccccc4)[C@H]21)C3(C)C [docetaxel]
mean A (no wilforlide A pre-Tx (control of Table 8), docetaxel 33.3 nM 72 h): 0.354
% viable [1]: 17.4%
mean A [1]: 0.346
mean A (wilforlide A 0.6 μg/ml pre-Tx, docetaxel 0.001 nM 72 h): 1.807
A at 565 nm (wilforlide A 0.6 μg/ml pre-Tx, docetaxel 0.001 nM 72 h, background = 0.043): 1.812 and 1.840 and 1.769
% viable [2]: 102.3%
mean A [2]: 1.848
A at 565 nm (wilforlide A 0.6 μg/ml pre-Tx, docetaxel 0.1 nM 72 h, background = 0.043): 1.855 and 1.874 and 1.816
% viable [3]: 99.3%
mean A [3]: 1.794
A at 565 nm (wilforlide A 0.6 μg/ml pre-Tx, docetaxel 0.333 nM 72 h, background = 0.043): 1.759 and 1.804 and 1.820
% viable [4]: 72.9%
mean A [4]: 1.317
A at 565 nm (wilforlide A 0.6 μg/ml pre-Tx, docetaxel 1 nM 72 h, background = 0.043): 1.303 and 1.386 and 1.263
% viable [5]: 44.9%
mean A [5]: 0.811
A at 565 nm (wilforlide A 0.6 μg/ml pre-Tx, docetaxel 3.33 nM 72 h, background = 0.043): 0.843 and 0.814 and 0.777
% viable [6]: 22.7%
mean A [6]: 0.409
A at 565 nm (wilforlide A 0.6 μg/ml pre-Tx, docetaxel 10 nM 72 h, background = 0.043): 0.408 and 0.421 and 0.400
% viable [7]: 17.5%
mean A [7]: 0.316
A at 565 nm (wilforlide A 0.6 μg/ml pre-Tx, docetaxel 33.3 nM 72 h, background = 0.043): 0.302 and 0.323
% viable [8]: 16.5%
mean A [8]: 0.299
A at 565 nm (wilforlide A 0.6 μg/ml pre-Tx, docetaxel 100 nM 72 h, background = 0.043): 0.290 and 0.287 and 0.320
% viable [9]: 100.0%
mean A [9]: 1.752
% viable [10]: 101.9%
mean A [10]: 1.786
% viable [11]: 94.1%
mean A [11]: 1.648
A at 565 nm (wilforlide A 2.5 μg/ml pre-Tx, docetaxel 0.333 nM 72 h, background = 0.044): 1.672
% viable [12]: 69.8%
mean A [12]: 1.222
A at 565 nm (wilforlide A 2.5 μg/ml pre-Tx, docetaxel 1 nM 72 h, background = 0.044): 1.201
% viable [13]: 43.9%
mean A [13]: 0.769
A at 565 nm (wilforlide A 2.5 μg/ml pre-Tx, docetaxel 3.33 nM 72 h, background = 0.044): 0.810
% viable [14]: 23.0%
mean A [14]: 0.403
A at 565 nm (wilforlide A 2.5 μg/ml pre-Tx, docetaxel 10 nM 72 h, background = 0.044): 0.402
% viable [15]: 19.2%
mean A [15]: 0.336
A at 565 nm (wilforlide A 2.5 μg/ml pre-Tx, docetaxel 33.3 nM 72 h, background = 0.044): 0.358
% viable [16]: 18.4%
mean A [16]: 0.322
A at 565 nm (wilforlide A 2.5 μg/ml pre-Tx, docetaxel 100 nM 72 h, background = 0.044): 0.318
% viable [17]: 100.0%
mean A [17]: 1.957
% viable [18]: 100.4%
mean A [18]: 1.965
% viable [19]: 92.2%
mean A [19]: 1.804
% viable [20]: 67.0%
mean A [20]: 1.311
% viable [21]: 41.7%
mean A [21]: 0.816
% viable [22]: 23.9%
mean A [22]: 0.467
% viable [23]: 19.1%
mean A [23]: 0.373
% viable [24]: 18.4%
mean A [24]: 0.361
IC50 (read-out: Drug IC50 after wilforlide A pre-Tx, pre-Tx amount of wilforlide A printed as none added): 1.61 nM
